Measured values published in PMC5766608, “Target engagement imaging of PARP inhibitors in small-cell lung cancer” (Nature Communications, 2018).
Entries after “also recorded” stand apart in the source; their conditions may differ.

Experiments:
PARP3 = biological target: T1, PARP3 (Homo sapiens, UniProt Q9Y6F1); assay: PARP family enzyme activity inhibition screening (BPS Bioscience); assay type: biochemical; details: 100 nM inhibitor
T1 construct: purchased BPS Bioscience, San Diego, CA
T1 sequence (Q9Y6F1 1-533): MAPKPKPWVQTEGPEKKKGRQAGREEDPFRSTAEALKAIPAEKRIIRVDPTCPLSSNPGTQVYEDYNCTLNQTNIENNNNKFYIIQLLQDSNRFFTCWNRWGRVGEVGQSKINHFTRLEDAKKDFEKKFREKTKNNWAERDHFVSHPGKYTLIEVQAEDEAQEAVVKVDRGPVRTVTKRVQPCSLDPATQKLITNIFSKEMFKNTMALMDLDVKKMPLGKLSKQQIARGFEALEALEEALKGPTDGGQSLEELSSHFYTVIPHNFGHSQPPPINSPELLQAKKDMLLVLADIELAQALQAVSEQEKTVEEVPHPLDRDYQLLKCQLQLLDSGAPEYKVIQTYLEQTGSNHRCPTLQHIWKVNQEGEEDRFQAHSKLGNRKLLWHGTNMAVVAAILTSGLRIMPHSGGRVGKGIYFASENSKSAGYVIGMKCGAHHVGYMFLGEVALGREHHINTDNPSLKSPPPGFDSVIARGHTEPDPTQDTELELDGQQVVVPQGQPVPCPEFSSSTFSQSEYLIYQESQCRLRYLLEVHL
Method: (§1) Fig. 1 Properties of PARP inhibitors. a Structures of 5 clinical therapeutic PARP inhibitors and the 2 PARP imaging agents. b Heatmap visualizing enzymatic activity screening of 10 small molecules against 12 PARP enzymes at 100 nM concentration (for additional concentrations, see Supplementary Fig. 1)
(§2) Assay was performed by BPS Bioscience, San Diego, CA. 100 µM DMSO solutions of each inhibitor were provided, and the assay was conducted after dilution to 100, 50, or 10 nM. […] Data was reported by BPS as % Enzyme Activity. Triplicates were combined to get a mean ± SD, and these were grouped and plotted onto a heatmap using Prism 7.
(§3) Supplementary Figure 1 | PARP enzyme family binding assays at additional concentrations.
(§4) histone substrate and biotin-labeled NAD+ at 100 nM (Fig. 1b), 50 nM (left) and 10 nM (right) for
(§5) each inhibitor and each enzyme.

PARP1 = biological target: T2, PARP1 (Homo sapiens, UniProt P09874); assay: as above; assay type: biochemical; details: 100 nM inhibitor
T2 construct: purchased BPS Bioscience, San Diego, CA
T2 sequence (P09874 whole entry): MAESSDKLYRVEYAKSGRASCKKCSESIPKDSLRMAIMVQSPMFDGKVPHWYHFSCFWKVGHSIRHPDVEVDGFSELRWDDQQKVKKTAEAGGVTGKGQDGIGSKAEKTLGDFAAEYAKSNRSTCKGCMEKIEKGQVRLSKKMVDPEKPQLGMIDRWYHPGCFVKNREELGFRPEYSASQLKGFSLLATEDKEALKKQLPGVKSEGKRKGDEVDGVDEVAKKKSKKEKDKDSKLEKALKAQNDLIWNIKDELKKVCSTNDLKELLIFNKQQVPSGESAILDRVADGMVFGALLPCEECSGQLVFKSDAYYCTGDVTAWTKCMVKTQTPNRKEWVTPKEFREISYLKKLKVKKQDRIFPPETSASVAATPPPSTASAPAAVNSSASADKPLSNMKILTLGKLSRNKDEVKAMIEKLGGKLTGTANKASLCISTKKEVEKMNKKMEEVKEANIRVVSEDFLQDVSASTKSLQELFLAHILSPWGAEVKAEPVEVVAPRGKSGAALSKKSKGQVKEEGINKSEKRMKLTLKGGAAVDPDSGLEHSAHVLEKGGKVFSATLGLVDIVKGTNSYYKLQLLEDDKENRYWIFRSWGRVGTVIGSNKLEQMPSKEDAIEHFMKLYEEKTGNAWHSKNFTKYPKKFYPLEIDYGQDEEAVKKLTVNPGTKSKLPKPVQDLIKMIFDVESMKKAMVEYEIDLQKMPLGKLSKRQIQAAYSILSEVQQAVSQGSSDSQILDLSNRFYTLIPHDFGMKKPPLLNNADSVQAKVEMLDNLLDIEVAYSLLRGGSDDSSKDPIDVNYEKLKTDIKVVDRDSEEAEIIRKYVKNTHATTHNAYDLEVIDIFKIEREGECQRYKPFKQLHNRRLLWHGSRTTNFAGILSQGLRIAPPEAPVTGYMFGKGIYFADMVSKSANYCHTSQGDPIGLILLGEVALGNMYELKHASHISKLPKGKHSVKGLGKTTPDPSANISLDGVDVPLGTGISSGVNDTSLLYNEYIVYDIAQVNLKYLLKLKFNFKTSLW
Method: as §1, §2, §3, §4, §5

PARP2 = biological target: T3, PARP2 (Homo sapiens, UniProt Q9UGN5); assay: as above; assay type: biochemical; details: 100 nM inhibitor
T3 construct: purchased BPS Bioscience, San Diego, CA
T3 sequence (Q9UGN5 whole entry): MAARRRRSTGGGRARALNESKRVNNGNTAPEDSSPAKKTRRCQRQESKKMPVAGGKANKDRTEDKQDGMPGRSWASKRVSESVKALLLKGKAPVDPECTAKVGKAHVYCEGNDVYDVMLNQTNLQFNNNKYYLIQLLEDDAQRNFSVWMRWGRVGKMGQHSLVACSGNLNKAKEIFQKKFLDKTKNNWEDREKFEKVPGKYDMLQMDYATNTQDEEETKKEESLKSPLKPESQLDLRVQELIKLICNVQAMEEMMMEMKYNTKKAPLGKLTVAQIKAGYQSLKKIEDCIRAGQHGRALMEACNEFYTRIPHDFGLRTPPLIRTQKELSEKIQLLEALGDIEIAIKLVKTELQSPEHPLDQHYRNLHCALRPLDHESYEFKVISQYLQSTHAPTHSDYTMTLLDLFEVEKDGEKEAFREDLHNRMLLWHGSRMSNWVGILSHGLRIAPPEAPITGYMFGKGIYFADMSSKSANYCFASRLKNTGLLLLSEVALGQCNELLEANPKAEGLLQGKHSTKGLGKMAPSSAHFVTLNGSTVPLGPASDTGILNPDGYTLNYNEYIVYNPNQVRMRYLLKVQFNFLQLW
Method: as §1, §2, §3, §4, §5

PARylation in LX22 cells = assay: PARylation inhibition assay (western blot for PAR); assay type: cell-based, human; details: 0.1 µM, 30 min incubation
Method: Whole cell lysates were prepared by incubating cells with RIPA Buffer with Triton X (BP-140, Boston BioProducts) containing Protease Inhibitor (Complete EASYpacks, Sigma-Aldrich) for 30 min on ice, followed by 30 min centrifugation at 10,000 × g for 30 min at 4 °C. Protein concentration of lysates was determined using a Bicinchoninic acid (BCA) assay kit (#23225, Pierce) and following the manufacturers instructions. SDS gel electrophoresis and immunoblotting were carried out following standard procedures. Signal detection was carried out using chemiluminescent substrate (#34077, Thermo Scientific). Densitometric analysis of western blots was carried out using ImageJ (NIH). To detect PAR, we used a rabbit polyclonal anti-PAR polymer antibody (1:1000 dilution, #4336-BPC-100, Trevigen) followed by a goat anti-rabbit IgG-HRP secondary antibody (1:10,000 dilution, sc-2004, SantaCruz). B-actin was used as loading control (1:1000 dilution, A3854, Sigma-Aldrich) and was stained after stripping the blot for 30 min at room temperature using stripping buffer (Amresco).
Supplementary Figure 3 | PARylation inhibition assay.
PARPi-FL and [18F]PARPi quantify PARP inhibition, we compared their ability to inhibit PARylation
in comparison with olaparib.
inhibition. At 1 µM, the PAR signal for all three compounds is nearly completely eliminated.

JHU-LX22 cells = assay: Cytotoxicity, Alamar Blue assay; assay type: cell-based, human; details: 24-96 h
Method: […]. Cells were plated in 96-well plates (black, clear-bottom, Corning Incorporated) at a density of 5,000 cells/well and allowed them to attach for 24 h. All compounds were prepared as 10 mM stock solutions in DMSO and further diluted in media. Cells were treated with 0, 2, 5, and 10 µM (final solutions containing 1% DMSO) of each compound for 24, 48, 72 and 96 h. Then, media was removed and Alamar Blue reagent was added to each well. Plates were incubated at 37 °C for 4 h under protection from direct light. Fluorescence was read (bottom-read mode) using an excitation wavelength of 570 nm and an emission wavelength of 585 nm on a SpectraMax M5 microplate reader (Molecular Devices, Sunnyvale, CA, USA). The average reading values were analyzed by subtracting the background readings (wells with Alamar Blue but without cells) and compared against the untreated controls of each plate (defined as 100% viability) to determine the percentage of living cells. The experiment was carried out in three biological replicates with four parallels of each compound.
Supplementary Figure 9 | In vitro toxicity of the tested PARP inhibitors and imaging tracers on JHU-LX22 cells. (a) Assessment of viable cell population during flow cytometry after a 2 hour incubation time of several PARP inhibitors at concentrations between 0 and 5 µM. (b) Cell viability determination using Alamar Blue assays. Cells were incubated with 0, 0.2, 2, 5 or 10 µM of each compound for 24, 48, 72 or 96 h and cell viability was assessed using the Alamar Blue assay. (c) IC values derived from Alamar Blue assays at 72 h and 96 h.
Viability data represent means from three independent experiments, each with four parallels of each sample. Error bars represent the standard error (SEM). […]

PARP1/2 = assay: In vitro binding kinetics by recovery of PARPi-FL binding (flow cytometry); assay type: cell-based, human; details: JHU-LX22 cells, 0.2 µM inhibitor 25 min, washed, 0-48 h post-incubation, two phase decay fit
Method: Cells were then treated with fluorescent imaging agent PARPi-FL and either imaged via confocal microscopy or measured via flow cytometry. […] Then, cells were trypsinized, subjected to flow cytometry and analyzed for the relative PARPi-FL fluorescence signal. […] Error bars represent the SD of three independent experiments with three parallels each
After the respective treatment/staining, which is described below for the different experiments, cells were washed in PBS, trypsinized, washed with flow buffer (1% BSA (w/v) in PBS), transferred to 5 mL flow cytometry tubes through the 40 µm cell strainer cap and left on ice until measurement in the flow cytometer (Fortessa II). Raw data were processed in FlowJo software in order to calculate PARPi-FL uptake per cell. Dead cells were excluded by eliminating DAPI positive cells from the analysis (Supplementary Fig. 8). Cell clumps and debris were eliminated using the corresponding gates (forward and side scatter) for the unstained cell population. PARPi-FL fluorescence was imaged in the FITC channel against side scatter (area).
We furthermore determined the duration of PARPi binding to their target site. […] Then, cells were subjected to flow cytometry as described above. […] We determined the duration of binding of the PARPi indirectly by calculating the recovery of PARP-FL binding with increasing times between PARPi and PARPi-FL treatment. Decay curves were calculated with Prism using two phase decay least squares regression.

Compound | inhibition at 0.1 µM (PARP3) [%] | inhibition at 0.1 µM (PARP1) [%] | inhibition at 0.1 µM (PARP2) [%] | Inhibition of PARylation (PAR signal) (PARylation in LX22 cells) | Effect on JHU-LX22 cell viability, in words (JHU-LX22 cells) | Retention on PARP1/2 binding sites, in words (PARP1/2) | Inhibition of PARP3 enzyme activity (PARP3) [%] | Inhibition of PARP1 enzyme activity (PARP1) [%] | Inhibition of PARP2 enzyme activity (PARP2) [%]
CC1=CC(C)=[N+]2C1=Cc1ccc(CCC(=O)N3CCN(C(=O)c4cc(Cc5n[nH]c(=O)c6ccccc56)ccc4F)CC3)n1[B-]2(F)F [PARPi-FL] | ≤ 30 | > 90 | > 90 | reduced PAR signal, but not complete | very similar effects on JHU-LX22 cell viability as other inhibitors; also recorded: very similar effects on JHU-LX22 cell viability as olaparib |  |  |  | 
Cn1ncnc1[C@H]1c2n[nH]c(=O)c3cc(F)cc(c23)N[C@@H]1c1ccc(F)cc1 [Talazoparib, (8S,9R)-5-Fluoro-8-(4-fluorophenyl)-9-(1-methyl-1H-1,2,4-triazol-5-yl)-2,7,8,9-tetrahydro-3H-pyrido[4,3,2-de]phthalazin-3-one] |  |  |  |  | most sensitive | longest retention |  |  | 
O=C(c1ccc(F)cc1)N1CCN(C(=O)c2cc(Cc3n[nH]c(=O)c4ccccc34)ccc2F)CC1 [^19F-PARPi] |  |  |  | nearly complete inhibition | very similar effects on JHU-LX22 cell viability as other inhibitors; also recorded: very similar effects on JHU-LX22 cell viability as olaparib | longest retention | ≤ 30 | > 90 | > 90
